Target: H3 receptors (Cavia porcellus, UniProt Q9JI35)
Experiment: H3 Receptor Binding Assay
Conditions: guinea pig brain membranes; 3 nM [3H]R-α-methylhistamine or [3H]-N-methylhistamine; 30° for 30 min; 50 mM Tris, pH 7.5
Description: The animals used weighed 400-600 g. The tissue was homogenized using a Polytron in a solution of 50 mM Tris, pH 7.5. The final concentration of tissue in the homogenization buffer was 10% w/v. The homogenates were centrifuged at 1000 x g for 10 min. in order to remove clumps of tissue and debris. The resulting supernatants were then centrifuged at 50,000 x g for 20 min. in order to sediment the membranes, which were next washed 3 times in homogenization buffer (50,000 x g for 20 min. each). The membranes were frozen and stored at -70°C until needed.
All compounds to be tested were dissolved in DMSO and then diluted into the binding buffer (50 mM Tris, pH 7.5) such that the final concentration was 2 µg/mL with 0.1% DMSO. Membranes were then added (400 µg of protein) to the reaction tubes. The reaction was started by the addition of 3 nM [^3H]R-α-methylhistamine (8.8 Ci/mmol) or [^3H]-N-methylhistamine (80 Ci/mmol) and incubated at 30° for 30 min. Bound ligand was separated from unbound ligand by filtration, and the amount of radioactive ligand bound to the membranes was quantitiated by liquid scintillation spectrometry. All incubations were performed in duplicate and the standard error was less than 10% in all instances.

Sequence of H3 receptors (Q9JI35 whole entry): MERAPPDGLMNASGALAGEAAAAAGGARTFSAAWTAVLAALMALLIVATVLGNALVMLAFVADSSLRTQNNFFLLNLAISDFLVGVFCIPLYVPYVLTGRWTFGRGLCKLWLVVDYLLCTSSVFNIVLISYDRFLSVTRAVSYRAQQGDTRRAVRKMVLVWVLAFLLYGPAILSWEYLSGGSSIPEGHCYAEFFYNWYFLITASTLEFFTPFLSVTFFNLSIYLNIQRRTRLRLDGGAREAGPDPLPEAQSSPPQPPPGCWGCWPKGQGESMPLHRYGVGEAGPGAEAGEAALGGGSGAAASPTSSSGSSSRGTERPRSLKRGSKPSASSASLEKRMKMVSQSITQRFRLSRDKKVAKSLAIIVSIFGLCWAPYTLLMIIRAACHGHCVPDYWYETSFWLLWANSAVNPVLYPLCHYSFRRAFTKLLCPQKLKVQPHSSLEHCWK

`CN1CCCC(Cc2c[nH]cn2)C1` (centres unmarked) [Compound 6.2] was tested. Which Ki did it give?
Its Ki is 190 nM.

With `c1nc(CC2CCNCC2)c[nH]1` [Compound 7.3] as the compound, how does the Ki read?
The Ki was 0.3 nM.

Reference: EP0619818B1, “IMIDAZOYLALKYL SUBSTITUTED WITH A SIX MEMBERED NITROGEN CONTAINING HETEROCYCLIC RING” (SCHERING CORPORATION, priority 1991, dated 1993)
